Results published in US9969742B2, “Imidazotriazinone compounds” (Ironwood Pharmaceuticals, Inc., priority 2012, dated 2018).
Like-named read-outs stand apart in the source and are kept apart here.

How the values were obtained:
Format in all cases: biochemical
PDE1A = target: T1, PDE1A (Homo sapiens, UniProt P54750); experiment: Phosphodiesterase enzyme screening assay, PDE1A
T1 construct: purchased Reaction Biology Corporation, Malvern, Pa
Method in brief: (§1)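 Human PDE isoforms were incubated 1 h at room temperature with 4.0 μM fluorescent cGMP substrate in 100 mM HEPES pH 7.5, 5 mM MgCl2, 1 mM DTT, 0.003% Brij. EDTA stop buffer ended reactions, and substrate and 5′-GMP product were separated by microfluidic electrophoretic mobility shift with laser-induced fluorescence. Inhibition was calculated against control wells.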

PDE1B = target: T2, PDE1B (Homo sapiens, UniProt Q01064); experiment: Phosphodiesterase enzyme screening assay, PDE1B
T2 construct: purchased Reaction Biology Corporation, Malvern, Pa
T2 sequence (Q01064 whole entry): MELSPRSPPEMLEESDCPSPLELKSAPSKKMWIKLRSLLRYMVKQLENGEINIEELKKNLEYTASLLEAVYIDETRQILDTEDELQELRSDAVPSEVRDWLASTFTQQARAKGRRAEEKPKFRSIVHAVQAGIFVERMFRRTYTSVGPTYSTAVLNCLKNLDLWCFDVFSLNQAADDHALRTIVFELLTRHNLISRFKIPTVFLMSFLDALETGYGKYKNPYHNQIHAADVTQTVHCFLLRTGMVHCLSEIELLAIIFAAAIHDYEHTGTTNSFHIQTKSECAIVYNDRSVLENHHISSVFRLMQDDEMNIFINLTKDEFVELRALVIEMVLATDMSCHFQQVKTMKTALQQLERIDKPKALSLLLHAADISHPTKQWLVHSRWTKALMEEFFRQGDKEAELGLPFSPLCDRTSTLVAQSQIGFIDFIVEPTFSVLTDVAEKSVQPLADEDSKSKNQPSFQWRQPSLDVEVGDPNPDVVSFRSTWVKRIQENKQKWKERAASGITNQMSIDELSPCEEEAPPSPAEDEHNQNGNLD
Method in brief: as §1

PDE9A2 = target: T3, PDE9A2 (Homo sapiens, UniProt O76083); experiment: Phosphodiesterase enzyme screening assay, PDE9A2; conditions: read-out: Band (PDE9A2 IC50)
T3 construct: purchased Reaction Biology Corporation, Malvern, Pa
T3 sequence (O76083 1-533 isoform O76083-2): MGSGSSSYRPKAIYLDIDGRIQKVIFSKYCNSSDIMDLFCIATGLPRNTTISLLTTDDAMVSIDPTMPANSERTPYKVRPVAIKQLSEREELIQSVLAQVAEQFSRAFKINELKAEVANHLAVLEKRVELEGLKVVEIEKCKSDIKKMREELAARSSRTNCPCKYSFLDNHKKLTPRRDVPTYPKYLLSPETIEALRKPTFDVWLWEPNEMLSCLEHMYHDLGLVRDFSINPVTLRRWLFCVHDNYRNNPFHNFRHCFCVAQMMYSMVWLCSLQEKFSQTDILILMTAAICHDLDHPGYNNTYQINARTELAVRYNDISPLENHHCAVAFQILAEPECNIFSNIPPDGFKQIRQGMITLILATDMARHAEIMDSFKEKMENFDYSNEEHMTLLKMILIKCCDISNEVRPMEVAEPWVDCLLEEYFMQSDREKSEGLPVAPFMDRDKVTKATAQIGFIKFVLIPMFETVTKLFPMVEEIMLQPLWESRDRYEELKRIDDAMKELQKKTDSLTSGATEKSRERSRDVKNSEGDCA
Method in brief: as §1

[1] = Table 2, ratio of IC50 values, value greater than 1 indicates greater selectivity for PDE9A2
[2] = Table 1, ratio of IC50 values, value greater than 1 indicates greater selectivity for PDE9A2
[3] = Table 1, 10 concentrations, 4.0 μM cGMP substrate, 1 hour at R.T.
[4] = ratio of IC50 values PDE1A / PDE9A2, value greater than 1 = greater selectivity for PDE9A2
[5] = ratio of IC50 values PDE1B / PDE9A2, value greater than 1 = greater selectivity for PDE9A2
[6] = 4.0 μM cGMP substrate, 1 hour at R.T.
[7] = ratio of IC50 values, value greater than 1 indicates greater selectivity for PDE9A2
[8] = ratio of IC50 values, PDE1A versus PDE9A2, value greater than 1 = greater selectivity for PDE9A2
[9] = ratio of IC50 values, PDE1B versus PDE9A2, value greater than 1 = greater selectivity for PDE9A2
[10] = Table 3, 4.0 μM cGMP substrate, 1 hour at R.T.

T1 sequence (P54750 whole entry): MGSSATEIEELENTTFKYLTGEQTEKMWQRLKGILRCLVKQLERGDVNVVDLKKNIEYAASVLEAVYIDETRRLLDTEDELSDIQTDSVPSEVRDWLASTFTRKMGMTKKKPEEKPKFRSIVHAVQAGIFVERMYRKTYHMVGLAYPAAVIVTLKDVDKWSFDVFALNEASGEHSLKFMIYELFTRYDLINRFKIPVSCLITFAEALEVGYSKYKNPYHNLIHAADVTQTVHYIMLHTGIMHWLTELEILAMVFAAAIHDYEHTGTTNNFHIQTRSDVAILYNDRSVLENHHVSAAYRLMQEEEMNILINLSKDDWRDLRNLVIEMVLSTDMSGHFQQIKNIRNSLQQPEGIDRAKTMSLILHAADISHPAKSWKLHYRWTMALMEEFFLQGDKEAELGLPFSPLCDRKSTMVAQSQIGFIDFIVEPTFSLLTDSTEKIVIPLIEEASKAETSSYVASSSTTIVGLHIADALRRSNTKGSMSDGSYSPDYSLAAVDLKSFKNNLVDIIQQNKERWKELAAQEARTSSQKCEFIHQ

| SMILES | PDE1A selectivity (versus PDE9A2) (PDE1A; [2]) | PDE1B selectivity (versus PDE9A2) (PDE1B; [2]) | IC50 (PDE9A2; [3]) [µM] | other results |
| --- | --- | --- | --- | --- |
| CC1CN(CCc2cncnc2)CC1c1nn2c(C3CCOCC3)ncc2c(=O)[nH]1 (single isomer, unassigned; (+)) [(+)-2-((3,4-trans)-4-methyl-1-(2-(pyrimidin-5-yl)ethyl)pyrrolidin-3-yl)-7-(tetrahydro-2H-pyran-4-yl)imidazo[5,1-f][1,2,4]triazin-4(3H)-one] |  |  |  | PDE1A selectivity (versus PDE9A2) (PDE1A; [1]): 71; PDE1B selectivity (versus PDE9A2) (PDE1B; [1]): 89; IC50 (PDE9A2; Table 2, 10 concentrations, 4.0 μM cGMP substrate, 1 hour at R.T.): < 1 µM |
| CC1CN(Cc2ccccc2N2CCCC2)CC1c1nn2c(C3CCOCC3)ncc2c(=O)[nH]1 (single isomer, unassigned; (+)) [(+)-2-((3,4-trans)-4-methyl-1-(2-(pyrrolidin-1-yl)benzyl)pyrrolidin-3-yl)-7-(tetrahydro-2H-pyran-4-yl)imidazo[5,1-f][1,2,4]triazin-4(3H)-one] | 184 | 213 | < 1 |  |
| CC1CN(Cc2ccccc2OC(F)(F)F)CC1c1nn2c(C3CCOCC3)ncc2c(=O)[nH]1 (single isomer, unassigned; (+)) [(+)-2-((3,4-trans)-4-methyl-1-(2-(trifluoromethoxy)benzyl)pyrrolidin-3-yl)-7-(tetrahydro-2H-pyran-4-yl)imidazo[5,1-f][1,2,4]triazin-4(3H)-one] |  |  |  | PDE1A selectivity (versus PDE9A2) (PDE1A; [4]): 173; PDE1B selectivity (versus PDE9A2) (PDE1B; [5]): 24; IC50 (PDE9A2; [6]): < 1 µM |
| CC1CN(Cc2ccccc2C(F)(F)F)CC1c1nn2c(C3CCOCC3)ncc2c(=O)[nH]1 (single isomer, unassigned; (+)) [(+)-2-((3,4-trans)-4-methyl-1-(2-(trifluoromethyl)benzyl)pyrrolidin-3-yl)-7-(tetrahydro-2H-pyran-4-yl)imidazo[5,1-f][1,2,4]triazin-4(3H)-one] | 73 | 16 | < 1 |  |
| Cc1ccccc1CN1CC(C)C(c2nn3c(C4CCOCC4)ncc3c(=O)[nH]2)C1 (single isomer, unassigned; (+)) [(+)-2-((3,4-trans)-4-methyl-1-(2-methylbenzyl)pyrrolidin-3-yl)-7-(tetrahydro-2H-pyran-4-yl)imidazo[5,1-f][1,2,4]triazin-4(3H)-one] | 249 | 105 | < 1 |  |
| CC1CN(Cc2cccc(N3CCCC3)c2)CC1c1nn2c(C3CCOCC3)ncc2c(=O)[nH]1 (single isomer, unassigned; (+)) [(+)-2-((3,4-trans)-4-methyl-1-(3-(pyrrolidin-1-yl)benzyl)pyrrolidin-3-yl)-7-(tetrahydro-2H-pyran-4-yl)imidazo[5,1-f][1,2,4]triazin-4(3H)-one] | 700 | 1190 | < 1 |  |
| CC1CN(Cc2cccc(OC(F)(F)F)c2)CC1c1nn2c(C3CCOCC3)ncc2c(=O)[nH]1 (single isomer, unassigned; (+)) [(+)-2-((3,4-trans)-4-methyl-1-(3-(trifluoromethoxy)benzyl)pyrrolidin-3-yl)-7-(tetrahydro-2H-pyran-4-yl)imidazo[5,1-f][1,2,4]triazin-4(3H)-one] | 261 | 99 | < 1 |  |
| CC1CN(Cc2cccc(C(F)(F)F)c2)CC1c1nn2c(C3CCOCC3)ncc2c(=O)[nH]1 (single isomer, unassigned; (+)) [(+)-2-((3,4-trans)-4-methyl-1-(3-(trifluoromethyl)benzyl)pyrrolidin-3-yl)-7-(tetrahydro-2H-pyran-4-yl)imidazo[5,1-f][1,2,4]triazin-4(3H)-one] | 203 | 86 | < 1 |  |
| Cc1cccc(CN2CC(C)C(c3nn4c(C5CCOCC5)ncc4c(=O)[nH]3)C2)c1 (single isomer, unassigned; (+)) [(+)-2-((3,4-trans)-4-methyl-1-(3-methylbenzyl)pyrrolidin-3-yl)-7-(tetrahydro-2H-pyran-4-yl)imidazo[5,1-f][1,2,4]triazin-4(3H)-one] | 442 | 402 | < 1 |  |
| CC1CN(c2nccc(C(F)(F)F)n2)CC1c1nn2c(C3CCOCC3)ncc2c(=O)[nH]1 (single isomer, unassigned; (+)) [(+)-2-((3,4-trans)-4-methyl-1-(4-(trifluoromethyl)pyrimidin-2-yl)pyrrolidin-3-yl)-7-(tetrahydro-2H-pyran-4-yl)imidazo[5,1-f][1,2,4]triazin-4(3H)-one] |  |  |  | PDE1A selectivity (versus PDE9A2) (PDE1A; [4]): 7; PDE1B selectivity (versus PDE9A2) (PDE1B; [5]): 1; IC50 (PDE9A2; [6]): < 1 µM |
| CC1CN(Cc2ncn(C)n2)CC1c1nn2c(C3CCOCC3)ncc2c(=O)[nH]1 (single isomer, unassigned; (+)) [(+)-2-((3,4-trans)-4-methyl-1-((1-methyl-1H-1,2,4-triazol-3-yl)methyl)pyrrolidin-3-yl)-7-(tetrahydro-2H-pyran-4-yl)imidazo[5,1-f][1,2,4]triazin-4(3H)-one] |  |  |  | PDE1A selectivity (versus PDE9A2) (PDE1A; [7]): 208; PDE1B selectivity (versus PDE9A2) (PDE1B; [7]): 266; IC50 (PDE9A2): < 1 µM |
| CC1CN(Cc2nc3ccccc3n2C)CC1c1nn2c(C3CCOCC3)ncc2c(=O)[nH]1 (single isomer, unassigned; (+)) [(+)-2-((3,4-trans)-4-methyl-1-((1-methyl-1H-benzo[d]imidazol-2-yl)methyl)pyrrolidin-3-yl)-7-(tetrahydro-2H-pyran-4-yl)imidazo[5,1-f][1,2,4]triazin-4(3H)-one] | 181 | 356 | < 1 |  |
| CC1CN(Cc2nccn2C)CC1c1nn2c(C3CCOCC3)ncc2c(=O)[nH]1 (single isomer, unassigned; (+)) [(+)-2-((3,4-trans)-4-methyl-1-((1-methyl-1H-imidazol-2-yl)methyl)pyrrolidin-3-yl)-7-(tetrahydro-2H-pyran-4-yl)imidazo[5,1-f][1,2,4]triazin-4(3H)-one] |  |  |  | PDE1A selectivity (versus PDE9A2) (PDE1A; [7]): 197; PDE1B selectivity (versus PDE9A2) (PDE1B; [7]): 107; IC50 (PDE9A2): < 1 µM |
| CC1CN(Cc2ccn(C)n2)CC1c1nn2c(C3CCOCC3)ncc2c(=O)[nH]1 (single isomer, unassigned; (+)) [(+)-2-((3,4-trans)-4-methyl-1-((1-methyl-1H-pyrazol-3-yl)methyl)pyrrolidin-3-yl)-7-(tetrahydro-2H-pyran-4-yl)imidazo[5,1-f][1,2,4]triazin-4(3H)-one] |  |  |  | PDE1A selectivity (versus PDE9A2) (PDE1A; [8]): 628; PDE1B selectivity (versus PDE9A2) (PDE1B; [9]): 721; IC50 (PDE9A2; [10]): < 1 µM |
| CC1CN(Cc2cnn(C)c2)CC1c1nn2c(C3CCOCC3)ncc2c(=O)[nH]1 (single isomer, unassigned; (+)) [(+)-2-((3,4-trans)-4-methyl-1-((1-methyl-1H-pyrazol-4-yl)methyl)pyrrolidin-3-yl)-7-(tetrahydro-2H-pyran-4-yl)imidazo[5,1-f][1,2,4]triazin-4(3H)-one] |  |  |  | PDE1A selectivity (versus PDE9A2) (PDE1A; [8]): 247; PDE1B selectivity (versus PDE9A2) (PDE1B; [9]): 434; IC50 (PDE9A2; [10]): < 1 µM |
| CC1CN(Cc2ccnn2C)CC1c1nn2c(C3CCOCC3)ncc2c(=O)[nH]1 (single isomer, unassigned; (+)) [(+)-2-((3,4-trans)-4-methyl-1-((1-methyl-1H-pyrazol-5-yl)methyl)pyrrolidin-3-yl)-7-(tetrahydro-2H-pyran-4-yl)imidazo[5,1-f][1,2,4]triazin-4(3H)-one] |  |  |  | PDE1A selectivity (versus PDE9A2) (PDE1A; [8]): 243; PDE1B selectivity (versus PDE9A2) (PDE1B; [9]): 370; IC50 (PDE9A2; [10]): < 1 µM |
| Cc1ncccc1CN1CC(C)C(c2nn3c(C4CCOCC4)ncc3c(=O)[nH]2)C1 (single isomer, unassigned; (+)) [(+)-2-((3,4-trans)-4-methyl-1-((2-methylpyridin-3-yl)methyl)pyrrolidin-3-yl)-7-(tetrahydro-2H-pyran-4-yl)imidazo[5,1-f][1,2,4]triazin-4(3H)-one] |  |  |  | PDE1A selectivity (versus PDE9A2) (PDE1A; [4]): 139; PDE1B selectivity (versus PDE9A2) (PDE1B; [5]): 201; IC50 (PDE9A2; [6]): < 1 µM |
| Cc1cc(CN2CC(C)C(c3nn4c(C5CCOCC5)ncc4c(=O)[nH]3)C2)ccn1 (single isomer, unassigned; (+)) [(+)-2-((3,4-trans)-4-methyl-1-((2-methylpyridin-4-yl)methyl)pyrrolidin-3-yl)-7-(tetrahydro-2H-pyran-4-yl)imidazo[5,1-f][1,2,4]triazin-4(3H)-one] |  |  |  | PDE1A selectivity (versus PDE9A2) (PDE1A; [4]): 232; PDE1B selectivity (versus PDE9A2) (PDE1B; [5]): 421; IC50 (PDE9A2; [6]): < 1 µM |
| Cc1nccc(CN2CC(C)C(c3nn4c(C5CCOCC5)ncc4c(=O)[nH]3)C2)n1 (single isomer, unassigned; (+)) [(+)-2-((3,4-trans)-4-methyl-1-((2-methylpyrimidin-4-yl)methyl)pyrrolidin-3-yl)-7-(tetrahydro-2H-pyran-4-yl)imidazo[5,1-f][1,2,4]triazin-4(3H)-one] | 184 | 400 | < 1 |  |
| Cc1ncc(CN2CC(C)C(c3nn4c(C5CCOCC5)ncc4c(=O)[nH]3)C2)cn1 (single isomer, unassigned; (+)) [(+)-2-((3,4-trans)-4-methyl-1-((2-methylpyrimidin-5-yl)methyl)pyrrolidin-3-yl)-7-(tetrahydro-2H-pyran-4-yl)imidazo[5,1-f][1,2,4]triazin-4(3H)-one] | 80 | 60 | < 1 |  |
